pEC50, pKi: −log10 of the molar value.

Test [1] relates to breast cancer cell line MX-1. The experiment in a line: MX-1 cell line proliferation assay (3-day, Cell Titer Glo). In kind it is cell-based. To be noted: Homo sapiens, MX1, MX-1 cells, 72 hours, read-out: Cellular proliferation: EC50. The procedure, abridged: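 MX-1 cells plated at 5000 cells/well and adhered overnight at 37°, then treated for 3 days with 10-point 3-fold dilutions (final top 3 or 1 μM). Viability by Cell Titer Glo luminescence normalized to DMSO-treated cells; EC50 from sigmoidal curve fit.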
For orientation: Cellular ATP, detected with luciferase, serves as a proxy for viable cell number.

For a further test, the target named is BRD4 (BDI-BDII_K57-K550) (Homo sapiens, UniProt O60885). The experiment in a line: TR-FRET bromodomain binding assay. Particulars: His-tagged tandem bromodomain, Alexa647-labeled probe; Ki calculated from IC50s, probe Kd and probe concentration.
In test [2] the test system is LPS induced IL-6 (Interleukin-6) production. Description: LPS (lipopolysaccharide) induced IL-6 production mouse assay. Particulars: CD1 mouse strain; oral administration one hour before LPS 2.5 mg/kg i.p.; serum IL-6 2 hours after LPS; p < 0.05.
Description: Compounds of the Examples listed in Table 2 were assayed for their ability to inhibit LPS (lipopolysaccharide) induced IL-6 (Interleukin-6) production in mice. Fox Chase SCID® female mice (Charles Rivers Labs, 8 per group) or CD1 female mice received an intraperitoneal challenge of lipopolysaccharide (2.5 mg/kg, L2630 E. coli 0111:B4) one hour after oral administration of compounds. Mice were euthanized 2 hours after lipopolysaccharide injection, blood was removed by cardiac puncture, and then the serum harvested from the blood samples was frozen at −80° C. On the day of the assay the serum samples were brought to room temperature and then diluted 1:20 in phosphate-buffered saline containing 2% bovine serum albumin. Interleukin-6 measurements were performed using a cytokine assay from Meso Scale Discovery (Gaithersburg, Md.) for mouse serum analysis according to the manufacturer's protocol and read on a SECTOR Imager 6000 (Meso Scale Discovery, Gaithersburg, Md.) instrument. Statistical analysis was performed using Prism software (version 5.0) incorporating Dunnett's one way ANOVA. The IL-6 mean and standard deviation of the group of vehicle treated animals were compared with the IL-6 mean and standard deviation of the group treated with drug.

As a reminder, the pKi is −log10 of the Ki, conventionally taken in molar units. `CCS(=O)(=O)Nc1cnc2c(c1)-c1cn(C)c(=O)cc1OCCCCc1cc(Cl)ccc1O2` [Example A-33, N-(11-chloro-2-methyl-3-oxo-2,3,6,7,8,9-hexahydrobenzo[11,12][1,6]dioxacyclododecino[2,3-b:4,5-c′]dipyridin-17-yl)ethanesulfonamide]: the pEC50 in test [1] is 8.25. Also, the pKi on BRD4 (BDI-BDII_K57-K550) was 8.84. Further, the “Inhibition of LPS induced IL-6 production, % inhibition” value (shortened to “Inhibition … % inhibition”) in test [2] amounted to 74%.
As to `Cn1cc2c(cc1=O)OCCCCc1cc(Cl)ccc1Oc1ccc(CS(C)(=O)=O)cc1-2` [Example A-36, 11-chloro-2-methyl-17-((methylsulfonyl)methyl)-6,7,8,9-tetrahydrodibenzo[4,5:7,8][1,6]dioxacyclododecino[3,2-c]pyridin-3(2H)-one], the pEC50 in test [1] is 7.72. Also, the pKi at BRD4 (BDI-BDII_K57-K550) is 8.55. In test [2], the “Inhibition … % inhibition” value stood at 68%.
In the case of `CCN1CCOc2cc(=O)n(C)cc2-c2cc(NS(=O)(=O)CC)ccc2Oc2ccc(Cl)cc2C1` [Example B-1, N-(11-chloro-8-ethyl-2-methyl-3-oxo-2,3,6,7,8,9-hexahydrodibenzo[f,i]pyrido[3,4-k][1,8,4]dioxazacyclododecin-17-yl)ethanesulfonamide], in test [1], the pEC50 was 8.06. Besides, the pKi on BRD4 (BDI-BDII_K57-K550) is 7.82. Also, in test [2], the “Inhibition … % inhibition” value is 43%.
For the compound `CCS(=O)(=O)Nc1ccc2c(c1)-c1cn(C)c(=O)cc1OCCOCc1cc(Cl)ccc1O2` [Example B-5, N-(11-chloro-2-methyl-3-oxo-2,3,6,7-tetrahydro-9H-dibenzo[6,7:9,10][1,4,8]trioxacyclododecino[11,12-c]pyridin-17-yl)ethanesulfonamide], the pEC50 in test [1] is 8.55. Besides, the pKi at BRD4 (BDI-BDII_K57-K550) was 8.92. Further, the “Inhibition … % inhibition” value in test [2] is reported as 61%.
